We go through two molecules from patent publication US20070117770A1, “Human ribosomal DNA (rDNA) and ribosomal RNA (rRNA) nucleic acids and uses thereof” (Cylene Pharmaceuticals, Inc., priority 2005, published 2007).

Common to all, as to assay: Protein kinase inhibition assay
Holding throughout (assay type): biochemical

One assay concerns the target Axl(h) (Homo sapiens, UniProt P30530). As to conditions: read-out: percent residual activity of Axl(h). The method, then:
(§1) Certain compounds were tested for activity in protein kinase inhibition assays. All substrates were dissolved and diluted to working stocks in de-ionized water, apart from histone H1 (10× working stock in 20 mM MOPS pH 7.0), PDKtide (10× working stock in 50 mM Tris pH 7.0) ATF2 (which is typically stored at a 20× working stock in 50 mM Tris pH 7.5, 150 mM NaCl, 0.1 mM EGTA, 0.03% Brij-35, 50% glycerol, 1 mM benzamidine, 0.2 mM PMSF and 0.1% R-mercaptoethanol), KKLNRTLSFAEPG (SEQ ID NO:203) and RRRLSFAEPG (SEQ ID NO:204) (50 mM HEPES pH 7.4) and GGEEEEYFELVKKKK (SEQ ID NO:205) (20 mM MOPS pH 7.0). All kinases were pre-diluted to a 10× working concentration prior to addition into the assay. The composition of the dilution buffer for each kinase is detailed below.
(§2) In a final reaction volume of 25 μl, Axl (h) (5-10 mU) is incubated with 8 mM MOPS pH 7.0, 0.2 mM EDTA, 250 μM KKSRGDYMTMQIG (SEQ ID NO:210), 10 mM MgAcetate and [y-33P-ATP] (specific activity approx. 500 cpm/pmol, concentration as required). The reaction is initiated by the addition of the MgATP mix. After incubation for 40 minutes at room temperature, the reaction is stopped by the addition of 5 μl of a 3% phosphoric acid solution. 10 μl of the reaction is then spotted onto a P30 filtermat and washed three times for 5 minutes in 75 mM phosphoric acid and once in methanol prior to drying and scintillation counting.

The next assay addresses Bmx(h) (Homo sapiens, UniProt P51813). As to conditions: read-out: percent residual activity of Bmx(h). The method, then:
as §1
as §2, with “Bmx” for “Axl”, “0.1 mg/ml poly(Glu, Tyr) 4:1,” for “250 μM KKSRGDYMTMQIG (SEQ ID NO:210),”, “[gamma-33P-ATP]” for “[y-33P-ATP]”, “Filtermat A” for “P30 filtermat”

For another assay, the target named is Flt3(D835Y)(h) (Homo sapiens, UniProt P36888, D835Y). As to conditions: read-out: percent residual activity of Flt3(D835Y)(h). The method, then: as §1
as §2, with “Flt3 (D835Y)” for “Axl”, “50” for “250”, “EAIYAAPFAKKK” for “KKSRGDYMTMQIG”, “NO:206),” for “NO:210),”, “[gamma-33P-ATP]” for “[y-33P-ATP]”

In a further assay the target is Fyn(h) (Homo sapiens, UniProt P06241). As to conditions: read-out: percent residual activity of Fyn(h). As for the experimental part: as §1
Chain of Fyn(h) (P06241 whole entry): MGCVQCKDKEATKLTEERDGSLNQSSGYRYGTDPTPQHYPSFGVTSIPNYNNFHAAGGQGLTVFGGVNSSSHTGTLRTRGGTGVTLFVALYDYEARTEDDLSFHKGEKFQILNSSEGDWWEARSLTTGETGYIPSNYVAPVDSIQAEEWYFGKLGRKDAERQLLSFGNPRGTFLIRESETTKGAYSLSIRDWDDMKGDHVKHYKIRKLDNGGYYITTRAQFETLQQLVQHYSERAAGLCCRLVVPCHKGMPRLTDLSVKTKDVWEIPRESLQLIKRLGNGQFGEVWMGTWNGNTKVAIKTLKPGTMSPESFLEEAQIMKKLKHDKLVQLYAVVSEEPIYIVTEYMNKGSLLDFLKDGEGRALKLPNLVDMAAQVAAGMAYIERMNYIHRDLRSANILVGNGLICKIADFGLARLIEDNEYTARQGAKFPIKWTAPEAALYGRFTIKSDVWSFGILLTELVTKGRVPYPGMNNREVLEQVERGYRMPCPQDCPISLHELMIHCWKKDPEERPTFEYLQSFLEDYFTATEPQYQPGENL
In a final reaction volume of 25 μl, Fyn (h) (5-10 mU) is incubated with 50 mM Tris pH 7.5, 0.1 mM EGTA, 0.1 mM Na3VO4, 250 μM KVEKIGEGTYGVVYK (SEQ ID NO:220) (Cdc2 peptide), 10 mM MgAcetate and [gamma-33P-ATP] (specific activity approx. 500 cpm/pmol, concentration as required). The reaction is initiated by the addition of the MgATP mix. After incubation for 40 minutes at room temperature, the reaction is stopped by the addition of 5 μl of a 3% phosphoric acid solution. […]

Another assay deals with MLCK(h) (Homo sapiens, UniProt Q9H1R3). As to conditions: read-out: percent residual activity of MLCK(h). As for the experimental part: as §1
In a final reaction volume of 25 μl, MLCK (h) (5-10 mU) is incubated with 8 mM MOPS pH 7.0, 0.2 mM EDTA, 0.5 mM CaCl2, 16 μg/ml calmodulin,250 μM KKLNRTLSFAEPG (SEQ ID NO:203), 10 mM MgAcetate and [gamma-33P-ATP] (specific activity approx. 500 cpm/pmol, concentration as required). The reaction is initiated by the addition of the MgATP mix. After incubation for 40 minutes at room temperature, the reaction is stopped by the addition of 5 μl of a 3% phosphoric acid solution. […]

The target of another assay is Tie2(h) (Homo sapiens, UniProt Q02763). Conditions: for remaining activity at 2.5 µM: read-out: percent residual activity of Tie2(h). As for the experimental part:
as §1
as §2, with “Tie2” for “Axl”, “0.5 mM MnCl2, 0.1 mg/ml poly(Glu, Tyr) 4:1,” for “250 μM KKSRGDYMTMQIG (SEQ ID NO:210),”, “[gamma-33P-ATP]” for “[y-33P-ATP]”, “Filtermat A” for “P30 filtermat”

Chain of Tie2(h) (Q02763 23-1124): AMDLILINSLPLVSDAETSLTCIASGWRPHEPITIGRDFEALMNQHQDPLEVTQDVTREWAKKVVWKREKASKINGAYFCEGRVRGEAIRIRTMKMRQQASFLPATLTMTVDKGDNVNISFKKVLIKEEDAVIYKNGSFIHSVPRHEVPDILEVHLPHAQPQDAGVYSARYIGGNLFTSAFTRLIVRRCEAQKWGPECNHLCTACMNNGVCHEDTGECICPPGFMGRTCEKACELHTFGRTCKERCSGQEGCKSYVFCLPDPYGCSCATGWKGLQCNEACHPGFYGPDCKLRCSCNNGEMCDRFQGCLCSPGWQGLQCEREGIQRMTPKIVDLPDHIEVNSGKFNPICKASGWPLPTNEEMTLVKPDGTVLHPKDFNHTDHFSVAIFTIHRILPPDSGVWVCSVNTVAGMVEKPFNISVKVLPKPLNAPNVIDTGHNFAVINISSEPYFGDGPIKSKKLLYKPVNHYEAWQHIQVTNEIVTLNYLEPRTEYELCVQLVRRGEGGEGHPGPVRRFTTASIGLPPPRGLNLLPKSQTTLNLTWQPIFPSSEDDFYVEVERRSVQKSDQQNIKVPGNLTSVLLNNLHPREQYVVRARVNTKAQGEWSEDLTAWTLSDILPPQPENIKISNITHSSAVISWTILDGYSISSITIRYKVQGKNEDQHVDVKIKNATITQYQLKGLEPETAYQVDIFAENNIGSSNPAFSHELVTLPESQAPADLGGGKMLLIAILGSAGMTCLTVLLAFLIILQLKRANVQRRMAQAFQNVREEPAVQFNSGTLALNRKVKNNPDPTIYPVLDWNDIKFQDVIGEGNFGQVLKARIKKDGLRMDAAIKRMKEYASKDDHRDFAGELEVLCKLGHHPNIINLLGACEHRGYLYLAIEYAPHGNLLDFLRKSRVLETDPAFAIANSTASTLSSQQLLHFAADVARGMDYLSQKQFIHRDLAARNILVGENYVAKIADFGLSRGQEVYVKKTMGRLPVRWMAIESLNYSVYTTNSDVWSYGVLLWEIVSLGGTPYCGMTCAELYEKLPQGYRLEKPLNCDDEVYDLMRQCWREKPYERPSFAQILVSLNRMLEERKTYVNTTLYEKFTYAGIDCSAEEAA
Chain of Axl(h) (P30530 26-894): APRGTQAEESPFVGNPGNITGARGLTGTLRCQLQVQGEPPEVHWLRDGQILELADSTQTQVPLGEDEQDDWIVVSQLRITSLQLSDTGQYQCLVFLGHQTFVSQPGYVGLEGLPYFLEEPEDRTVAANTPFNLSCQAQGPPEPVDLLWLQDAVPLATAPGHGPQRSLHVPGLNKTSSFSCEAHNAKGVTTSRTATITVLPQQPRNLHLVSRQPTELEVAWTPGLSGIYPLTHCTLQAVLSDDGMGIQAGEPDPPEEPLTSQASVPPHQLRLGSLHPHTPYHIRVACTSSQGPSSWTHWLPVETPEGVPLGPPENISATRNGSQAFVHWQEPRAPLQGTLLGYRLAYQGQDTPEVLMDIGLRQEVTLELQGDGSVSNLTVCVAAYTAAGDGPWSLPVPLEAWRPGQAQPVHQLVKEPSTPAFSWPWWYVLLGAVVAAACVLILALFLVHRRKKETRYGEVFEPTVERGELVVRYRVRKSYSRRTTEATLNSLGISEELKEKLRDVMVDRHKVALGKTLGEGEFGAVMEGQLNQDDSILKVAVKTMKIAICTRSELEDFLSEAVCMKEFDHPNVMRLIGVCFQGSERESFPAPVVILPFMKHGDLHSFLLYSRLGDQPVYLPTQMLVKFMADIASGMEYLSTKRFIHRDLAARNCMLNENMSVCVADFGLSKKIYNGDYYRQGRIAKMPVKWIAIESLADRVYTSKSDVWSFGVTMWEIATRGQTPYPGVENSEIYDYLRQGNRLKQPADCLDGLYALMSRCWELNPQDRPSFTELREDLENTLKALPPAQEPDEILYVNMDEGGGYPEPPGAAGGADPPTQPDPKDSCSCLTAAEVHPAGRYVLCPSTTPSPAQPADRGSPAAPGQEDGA
Chain of Bmx(h) (P51813 whole entry): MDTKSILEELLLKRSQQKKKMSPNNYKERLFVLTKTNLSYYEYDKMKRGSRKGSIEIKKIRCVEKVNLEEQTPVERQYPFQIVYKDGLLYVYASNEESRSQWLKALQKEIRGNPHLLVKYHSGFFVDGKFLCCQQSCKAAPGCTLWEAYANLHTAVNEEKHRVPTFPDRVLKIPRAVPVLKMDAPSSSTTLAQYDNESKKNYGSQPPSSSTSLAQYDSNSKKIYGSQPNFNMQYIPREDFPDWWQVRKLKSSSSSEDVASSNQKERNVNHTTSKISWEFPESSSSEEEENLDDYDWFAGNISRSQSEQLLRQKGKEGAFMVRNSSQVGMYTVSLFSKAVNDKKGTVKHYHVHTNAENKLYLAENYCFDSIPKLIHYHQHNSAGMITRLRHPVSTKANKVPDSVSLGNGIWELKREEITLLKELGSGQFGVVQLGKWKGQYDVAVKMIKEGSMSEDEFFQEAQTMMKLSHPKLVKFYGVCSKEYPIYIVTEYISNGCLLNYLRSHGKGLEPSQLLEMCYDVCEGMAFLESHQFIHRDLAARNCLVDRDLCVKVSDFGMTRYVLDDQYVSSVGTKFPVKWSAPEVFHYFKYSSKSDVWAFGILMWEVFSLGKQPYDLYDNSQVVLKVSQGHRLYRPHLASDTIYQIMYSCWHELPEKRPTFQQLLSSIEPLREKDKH

Consider `CN1CCCC1CCNC(=O)c1cn2c3c(c(N4CCC(c5cnccn5)C4)c(F)cc3c1=O)Oc1cc3ccccc3cc1-2` (stereo not shown) [Compound A-1], for which the remaining activity at 2.5 µM at Axl(h) is 75%; at Bmx(h), 68%; at Flt3(D835Y)(h) it was 36%; on Fyn(h), 97%; on MLCK(h), 77%; at Tie2(h), 13%. Further, on Tie2(h), the inhibition (commonly the drop in the measured response relative to a control, in per cent) at 2.5 µM was over 80%.

With `CC(=O)N1CCN(c2ccc3c(=O)c(C(=O)NCCN4CCCC4)c4n(C)c5ccccc5n4c3n2)CC1` [Compound B-1], the remaining activity at 2.5 µM worked out at 102% at Axl(h); 105% on Bmx(h); 78% at Flt3(D835Y)(h); 85% on Fyn(h); 94% on MLCK(h); 115% at Tie2(h).
